Source: patent EP0462621A2, “Use of particular compounds for manufacture of pharmaceutical formulations for treatment against various parasites, mycoplasmas, other indications and other infections” (Prendergast, Patrick Thomas, priority 1990, dated 1991)

What was measured:
T. cruzi [1] = experiment: T. cruzi mouse model, in-vivo
Source text: (§1) In-vitro and in-vivo models were used to test activities of a selection of many compounds. Those activities are summarized in Tables 1-3, showing variation between systems and species. Activities measured in the MP mo and HM mo models have shown the best correlation with results obtained in hamster and mouse models.

T. cruzi [2] = experiment: T. cruzi intracellular amastigote (AM) in-vitro screen; type: cell-based
Description: Dividing populations can be cultivated in muscle cells, fibroblasts and macrophages, following infection with trypomastigotes. After the initial infection, there is normally a period of 4-5 days during which the amastigotes divide before transforming, via the epimastigote stage, back to trypomastigotes which escape from the cell. Drug activity is measured during this 4-5 day period. A dividing host cell population, low infection rate, and the presence of trypomastigotes in the overlay can complicate the interpretation of results.
Intracellular amastigote models can use a range of muscle (skeletal and cardiac) and fibroblast (e.g. HeLa, HePa) cell lines, macrophages, and chick embryo cells. […] To overcome the problems of overgrowth of the monolayer and a low percentage of infected cells, often associated with the use of cell lines, irradiated rat L6 myoblasts are used.

[3] = tested on: T.b. brucei, T.b. gambiense and T.b. rhodesiense; experiment: Procyclic trypomastigote (TRY) in-vitro screen; type: cell-based; further: key: - no/poor activity,; + fair/moderate activity,; ++ good/excellent activity
Description: (§2) Primary screening for new trypanocides has made extensive use of rodent systems, in which host survival time is a simple indicator of drug activity. In-vitro screens have used a variety of trypomastigote types (see Table 3, below). […] Most early in-vitro screens employed a short test in which bloodstream trypomastigotes were isolated from an infected rodent and maintained for up to 24 h in a simple drug-containing media. Two significant modifications of this technique include maintaining isolated bloodstream trypomastigotes in drug-containing media for 3-4 hours at 37° C in micro-titre plates and their subsequent viability assessed by the uptake of radiolabelled precursors or motility and infectivity to mice.
as §1

[4] = tested on: T.b. brucei, T.b. gambiense and T.b. rhodesiense; experiment: African trypanosomiasis mouse model, in-vivo
Description: as §2, §1

[5] = tested on: T.b. brucei, T.b. gambiense and T.b. rhodesiense; experiment: Cultivated bloodstream trypomastigote (TRY) in-vitro screen; type: cell-based
Source text: Culture systems developed in the last decade have used mammalian cell feeder layers to support the growth of dividing populations of bloodstream trypomastigotes of T. brucei spp. Some of these systems have been used in chemotherapy studies, including; (1) bovine fibroblast culture - T. brucei models to test some standard and experimental compounds, (2) murine bone marrow culture - T.b. gambiense model to screen inosine analogues and platinum and hypolipidemic compounds, and (3) Microtus embryonic fibroblast culture (MEF) - T.b. rhodesiense model to test standard and experimental drugs. These systems give a good indication of in-vivo activity (see Table 3). They measure activity against dividing cells rather than specific macromolecular synthesis pathways and can be readily established in micro-titre plates. The MEF and bone marrow cell feeder layers can be used to grow a range of strains of T. brucei spp., offering the possibility of examining variations in drug susceptibility and resistance between strains. The presence of a feeder layer, however, limits the opportunities for the automation of these systems.
as §1

[6] = tested on: T.b. brucei, T.b. gambiense and T.b. rhodesiense; experiment: Isolated bloodstream trypomastigote (TRY) in-vitro screen; type: cell-based
Description: as §2
In-vitro studies on isolated bloodstream trypomastigotes were also used in the rational biochemical approaches towards the chemotherapy of T. brucei infections involving inhibitors of carbohydrate catabolism salicyl hydroxamic acid plus glycerol), of polyamine synthesis (methylgyoxal bis-guanylhydrazone and - DFMO), and of surface coat glycoprotein synthesis (Tunicamycin). In these studies, activity of the compounds are shown in-vitro and in-vivo, whereas the sensitivity of isolated bloodstream trypomastigotes to toxic oxygen radicals generated by naphthoquinones was not shown by the parasites in mice. The activity of the standard anti-trypanosomals-melarsoprol, pentamidine and suramin and tested compounds according to the present invention in in-vitro systems is shown in Table 3.
as §1

L donovani [7] = experiment: Leishmania mouse/hamster models, in-vivo; conditions: Ld. Further: key: - no/poor activity,; + fair/moderate activity,; ++ good/excellent activity.
Source text: as §1

L major/L mexicana [8] = experiment: Amastigote-promastigote (AM-PRO) transformation, in-vitro; type: cell-based; conditions: Lm.
L donovani [9] = experiment: Amastigotes (AM) in mouse or human macrophages (mos), in-vitro; type: cell-based; conditions: Ld., Amastigote
Source text: (§3) Amastigotes of Leishmania can be cultivated in a wide range of mammalian cells, some of which may be used in in-vitro screens. These include (1) a Sticker dog sarcoma (fibroblast) cell line, (2) transformed rodent macrophage cell lines, (3) primary isolated mouse peritoneal macrophages (MP mo), and (4) human monocyte-derived macrophages (HM mo). The methods are similar for all models. Amastigote or promastigote infected cells are maintained in a medium containing the drug for 4-7 days, at 37 C for L. donovani and 33-35 C for L. major and L. mexicana. Drug activity is then assessed by counting (I) the number of infected host cells and/or (II) the number of amastigotes/100 host cells.
as §1

L major/L mexicana [10] = experiment: as above; type: cell-based; conditions: Lm., Amastigote
Source text: as §3, §1

`CC1CS(=O)(=O)CCN1/N=C/c1ccc([N+](=O)[O-])o1` (stereo not shown) [Nifurtimox, nifurtimox] was tested, and the “activity, mouse model” value (T. cruzi [1]; T. cruzi strain CL) was “++ and +”, the “activity, mouse model” value (T. cruzi [1]; T. cruzi strain Sonya) was “+” and the “activity, mouse model” value (T. cruzi [1]; T. cruzi strain Tu) was “+”. The “activity, mouse model” value (T. cruzi [1]; T. cruzi strain WBH) was “++”, the “activity, mouse model” value (T. cruzi [1]; T. cruzi strain Y) was “++ and +” and the “activity, intracellular AM” value (T. cruzi [2]; T. cruzi strain Sonya) was “++(Y,WBH, Sonya)”. For the same compound, the “activity, intracellular AM” value (T. cruzi [2]; T. cruzi strain WBH) was “++(Y,WBH, Sonya)” and the “activity, intracellular AM” value (T. cruzi [2]; T. cruzi strain Y) was “++(Y,WBH, Sonya)”.
In the case of `Cc1ccc(C(=O)Nc2ccc(S(=O)(=O)O)c3cc(S(=O)(=O)O)cc(S(=O)(=O)O)c23)cc1NC(=O)c1cccc(NC(=O)Nc2cccc(C(=O)Nc3cc(C(=O)Nc4ccc(S(=O)(=O)O)c5cc(S(=O)(=O)O)cc(S(=O)(=O)O)c45)ccc3C)c2)c1` [Suramin, suramin, reference compound], the “activity, procyclic TRY” value [3] is reported as “-”, the “activity, mouse model” value [4] is reported as “+ +” and the “activity, cultivated bloodstream TRY” value [5] is reported as “+”. The “activity, isolated bloodstream TRY” value [6] was “-,+”.
In the case of `O.O.O.O.O.O.O.O.O.O=C([O-])[C@@H]1[O][Sb]2([O-])([O][Sb]34([OH])[O][C@H]([C@H](O)CO)[C@H]([O]3)[C@H](C(=O)[O-])[O]4)[O][C@H]([C@H](O)CO)[C@@H]1[O]2.[Na+].[Na+].[Na+]` [Sodium stibogluconate, sodium stibogluconate, reference compound], the “Activity, mouse/ hamster models” value (L donovani [7]) is reported as “+ +”, the “Activity, AM-PRO transform-ation” value (L major/L mexicana [8]) is reported as “+ +” and the “Activity, AM in mouse or human mos” value (L donovani [9]) is reported as “+ +”. The “Activity, AM in mouse or human mos” value (L major/L mexicana [10]) was “+ +”.
With `Nc1nc(N)nc(Nc2ccc([As]3SCC(CO)S3)cc2)n1` (stereo not shown) [Melarsoprol, melarsoprol, reference compound] the “activity, mouse model” value [4] was “+ +”, the “activity, cultivated bloodstream TRY” value [5] was “+ +” and the “activity, isolated bloodstream TRY” value [6] was “+ +”.
